Assay results published in patent publication US9175013B2, “Fused aminodihydrothiazine derivatives” (Eisai R&D Management Co., Ltd., priority 2011, dated 2015).
Where two headings read alike, the source gives them in different places.

Legend:
[1] = Rat in vivo CNS penetration: plasma, brain and CSF concentrations by LC-MS/MS; details: male, Sprague Dawley, po, 10 mg/kg, 10 mg/kg p.o.; for concentration at 2 h / Kp at 2 h: 2 h post-dose; for concentration at 4 h / Kp at 4 h: 4 h post-dose; for concentration at 6 h / Kp at 6 h: 6 h post-dose; for concentration at 8 h / Kp at 8 h: 8 h post-dose
Method: Rat In Vivo CNS Penetration Male Sprague Dawley rats were acquired from Charles River UK Ltd. (Margate, UK) and housed according to UK Home Office guidelines. Drugs were made up to the appropriate concentrations in 0.5% methyl cellulose. Animals were dosed orally (2 mL/kg) by gavage at the doses outlined in Tables 1 to 4 below. At the time points post-dosing, specified in the Tables 1 to 4 below the animals were administered an i.p. injection of sodium pentobarbitone (approximately 330 mg/kg for terminal anaesthesia). Using a guillotine, the animals were decapitated and trunk blood collected into 15 ml Falcon tubes containing 100 IU heparin. Blood was vortexed followed by centrifugation at 6000 rpm, 4° C. for 5 minutes. Plasma was collected for DMPK and ELISA assays and stored at −80° C. until use. Brains were dissected out and divided along the midline, weighed and stored at −80° C. until further use. Method for Analysis of Plasma, Brain and CSF Samples Test compound was prepared as a 1 mg free base/mL solution in DMSO, vortexed and sonicated for 5 min. The 1 mg/mL DMSO solution was diluted to 10 and 30 μg/mL acetonitrile stocks, by adding 10 μL to 990 μL acetonitrile and 30 μL to 970 acetonitrile, respectively. The 10 and 30 μg/mL acetonitrile stocks were then serially diluted 1:9 (v/v) (100 μL stock into 900 μL acetonitrile) to give the following solutions: 0.003, 0.01, 0.03, 0.1, 0.3, 1, 3, 10 and 30 μg/mL acetonitrile. Control male Sprague Dawley rat plasma and the study plasma samples were stored at −80° C. until the day of analysis when they were thawed at room temperature. Control plasma was centrifuged (2,000 g for 10 min) and aliquoted (90 μL) into eppendorf tubes for preparation of standards and blank samples. Study samples were previously aliquoted (100 μL) into eppendorf tubes immediately following collection of the plasma. An aliquot (10 μL) of the appropriate acetonitrile stock was added to the control plasma (to give a final volume of 100 μL) to give the required calibration standards covering the range 1-3000 ng/mL. Double blank and blank samples were prepared by adding 10 μL of acetonitrile to 90 μL of blank plasma. Control male Sprague Dawley rat brain and the study brain samples were weighed after collection and stored at −80° C. until the day of analysis when they were thawed at room temperature. Once thawed brains were diluted with water (4 mL per gram of tissue) and homogenised using a mechanical homogeniser. An aliquot (100 μL) of each study sample was taken into Micronics tubes ready for analysis and sufficient aliquots (90 μL) of control brain homogenate prepared for preparation of standards and blanks. An aliquot (10 μL) of the appropriate acetonitrile stocks was added to the control brain homogenate (to give a final volume of 100 μL) to give the required calibration standards covering the range 1.5-5000 ng/g. Double blank and blank samples were prepared by adding 10 μL of acetonitrile to 90 μL of blank brain homogenate. Each plasma and brain homogenate sample, standard and blank (100 μL) was extracted with an aliquot (300 μL) of acetonitrile (containing 0.1% formic acid and 100 ng/mL of an appropriate internal standard). Double blanks were extracted with an aliquot (300 μL) of acetonitrile containing 0.1% formic acid). All samples, standards and blanks were then vortex mixed and centrifuged (2000 g for 15 min). An aliquot (50 μL) of the resulting supernatant was then taken into a 2 mL 96-deep well plate and diluted with acetonitrile:water (50:50 v/v) (150 μL) ready for analysis by a specific LC-MS/MS method. Control male Sprague Dawley rat CSF and the study CSF samples were stored at −80° C. until the day of analysis when they were thawed at room temperature. An aliquot (50 μL) of each study sample was taken into Micronics tubes ready for analysis and sufficient aliquots (45 μL) of control CSF prepared for preparation of standards and blanks. […]

[2] = Human liver microsomal stability assay; type: in vitro ADME; details: 0.1 μmol/L compound, 30 min, 37° C., NADPH generating system
Method: Human Liver Microsomal Stability Assay The compound was dissolved in DMSO to prepare 1 mmol/L DMSO solution. The DMSO solution was diluted with distilled water to prepare 1 μmol/L compound dosing solution (DMSO conc.: 0.1%). 105 μL of reaction buffer (1 mol/L phosphate buffer (pH 7.4)/1 mmol/L EDTA (pH 7.4)/distilled water=1/1/5, v/v/v), 15 μL of 1 μmol/L compound dosing solution, and 15 μL of rat or human liver microsomes (5 mg/mL) were mixed, and preincubated for 5 min at 37° C. Metabolic reaction was initiated by adding 15 μL of NADPH generating system (3.3 mmol/L β-NADPH+, 80 mmol/L glucose 6-phosphate, 1 unit/mL glucose 6-phosphate dehydrogenase, 60 mmol/L MgCl2). For the control sample, NADPH generating system was replaced with 60 mmol/L MgCl2. The 150 μL of reaction mixture (final compound conc.: 0.1 μmol/L, final DMSO conc.: 0.01%) was incubated for 30 min at 37° C., and the reaction was terminated by adding 150 μL of methanol/acetonitrile solution containing an appropriate internal standard compound. The sample was vortexed and centrifuged, and obtained supernatant was subject to LC/MS analysis.

[3] = CSF, CSF concentration, read-out: [CSF]
[4] = brain, total brain concentration, read-out: [Br]
[5] = brain, unbound brain, [Br] x Br Fu, read-out: [Bru]
[6] = plasma, total plasma concentration, read-out: [Pl]
[7] = plasma, unbound plasma, [Pl] x Pl Fu, read-out: [Plu]

Structure (SMILES)	concentration at 2 h [1, 3]	Kp at 2 h ([1]; CSF, read-out: CSF:Plu)	concentration at 4 h [1, 3]	Kp at 4 h ([1]; CSF, read-out: CSF:Plu)	concentration at 6 h [1, 3]	Kp at 6 h ([1]; CSF, read-out: CSF:Plu)	concentration at 8 h [1, 3]	Kp at 8 h ([1]; CSF, read-out: CSF:Plu)	Kp at 2 h ([1]; brain, read-out: Brtot:Pltot)	Kp at 2 h ([1]; brain, read-out: Bru:Plu)	concentration at 2 h [1, 4]	concentration at 2 h [1, 5]	Kp at 4 h ([1]; brain, read-out: Brtot:Pltot)	Kp at 4 h ([1]; brain, read-out: Bru:Plu)	concentration at 4 h [1, 4]	concentration at 4 h [1, 5]	Kp at 6 h ([1]; brain, read-out: Brtot:Pltot)	Kp at 6 h ([1]; brain, read-out: Bru:Plu)	concentration at 6 h [1, 4]	concentration at 6 h [1, 5]	other results
COc1cnc(C(=O)Nc2cc(F)c(F)c([C@]34CO[C@H](CF)[C@H]3CSC(N)=N4)c2)cn1 [Example 4, N-(3-((4aS,5S,7aS)-2-amino-5-(fluoromethyl)-4a,5,7,7a-tetrahydro-4H-furo[3,4-d][1,3]thiazin-7a-yl)-4,5-difluorophenyl)-5-methoxypyrazine-2-carboxamide]	33 nM	0.6	40 nM	0.6	13 nM	0.6	8 nM	0.6	3.8	0.6	1470 nM	31 nM	3.4	0.5	1620 nM	34 nM	3.8	0.6	609 nM	13 nM	Kp at 8 h ([1]; brain, read-out: Brtot:Pltot): 3.7; Kp at 8 h ([1]; brain, read-out: Bru:Plu): 0.6; concentration at 8 h [1, 4]: 385 nM; concentration at 8 h [1, 5]: 8 nM; concentration at 2 h [1, 6]: 392 nM; concentration at 2 h [1, 7]: 51 nM; concentration at 4 h [1, 6]: 482 nM; concentration at 4 h [1, 7]: 63 nM; concentration at 6 h [1, 6]: 162 nM; concentration at 6 h [1, 7]: 21 nM; concentration at 8 h [1, 6]: 105 nM; concentration at 8 h [1, 7]: 14 nM; HLM stability: percentage of parent remaining upon 30 minute incubation with human liver microsomes [2]: 78.6%
COc1cnc(C(=O)Nc2ccc(F)c([C@]34CO[C@H](CF)[C@H]3CSC(N)=N4)c2)cn1 [Example 2, N-(3-((4aS,5S,7aS)-2-amino-5-(fluoromethyl)-4a,5,7,7a-tetrahydro-4H-furo[3,4-d][1,3]thiazin-7a-yl)-4-fluorophenyl)-5-methoxypyrazine-2-carboxamide]	133 nM	0.6	201 nM	1.2	60 nM	0.7	68 nM	1.2	2.1	0.6	1780 nM	118 nM	2.1	0.5	1340 nM	88 nM	2	0.5	703 nM	46 nM	Kp at 8 h ([1]; brain, read-out: Brtot:Pltot): 2.1; Kp at 8 h ([1]; brain, read-out: Bru:Plu): 0.6; concentration at 8 h [1, 4]: 479 nM; concentration at 8 h [1, 5]: 32 nM; concentration at 2 h [1, 6]: 850 nM; concentration at 2 h [1, 7]: 214 nM; concentration at 4 h [1, 6]: 645 nM; concentration at 4 h [1, 7]: 163 nM; concentration at 6 h [1, 6]: 353 nM; concentration at 6 h [1, 7]: 89 nM; concentration at 8 h [1, 6]: 224 nM; concentration at 8 h [1, 7]: 56 nM; HLM stability: percentage of parent remaining upon 30 minute incubation with human liver microsomes [2]: 82.0%
